The numbers were not newly measured in US20200230141A1, “BI-LAYER PHARMACEUTICAL TABLET FORMULATION” (ViiV Healthcare Company, priority 2017, published 2020), which cites them from elsewhere.

Like-named read-outs stand apart in the source and are kept apart here.

For data set [1] the following is noted: not told.
For data set [2] the following is noted: typical / standard physiologic conditions.
For data set [3] the following is noted: steady state, HIV-1-infected adults.
The next data set relates to HIV-1 strains. To be noted: broad range of HIV-1 strains.

Consider `Nc1ccn([C@@H]2CS[C@H](CO)O2)c(=O)n1` (single isomer, unassigned) [lamivudine], for which the permeability result in data set [1] is “highly permeable”.

As to `C[C@@H]1CCO[C@H]2Cn3cc(C(=O)NCc4ccc(F)cc4F)c(=O)c(O)c3C(=O)N12` [Dolutegravir, (4R,12aS)—N-[(2,4-difluorophenyl)methyl]-7-hydroxy-4-methyl-6,8-dioxo-3,4,12,12a-tetrahydro-2H-pyrido[5,6]pyrazino[2,6-b][1,3]oxazine-9-carboxamide], the solubility result in data set [2] is “slightly soluble”. The “Cmax, geometric mean (% CV)” value in data set [3] (50 mg once daily) was 3.67 (20) mcg/mL; in data set [3] (50 mg twice daily) it was 4.15 (29) mcg/mL. Moreover, the “Cmin, geometric mean (% CV)” value in data set [3] (50 mg once daily) is 1.11 (46) mcg/mL; in data set [3] (50 mg twice daily) it was 2.12 (47) mcg/mL. Besides, the “AUC(0-24), geometric mean (% CV)” value in data set [3] (50 mg once daily, population PK (SPRING-1, SPRING-2)) was 53.6 (27) mcg · h/mL; in data set [3] (50 mg twice daily, population PK (VIKING, VIKING-3)), 75.1 (35) mcg · h/mL. Further, the potency result in the data set on HIV-1 strains was “subnanomolar”.
